The NIST ThermoML archive (doi:10.1021/je800589e)
Numbers after ± are expanded uncertainties.

Experiment: xn = mol fraction of the nth substance listed
Settings: Ring tensiometer

O=C1CCCN1 [2-pyrrolidinone] + O
surface tension liquid-gas [mN/m]
Settings	293.15 K	298.15 K	303.15 K	313.15 K	323.15 K
x1 = 0.0002	60.4 ± 0.93	58.9 ± 27	57.3 ± 0.82	55.4 ± 7.2	53.2 ± 0.78
x1 = 0.0006	55.69 ± 1	54.6 ± 13	53.93 ± 1.2	52.2 ± 12	51.05 ± 0.78
x1 = 0.01	52.9 ± 0.72	51.68 ± 0.71	50.8 ± 0.7	49.8 ± 0.68	49.1 ± 0.67
x1 = 0.015	52.4 ± 0.7	51.19 ± 0.69	50.23 ± 0.68	49.3 ± 0.66	48.7 ± 0.66
x1 = 0.05	50.72 ± 0.69	49.58 ± 0.67	48.68 ± 0.66	47.77 ± 0.65	46.34 ± 0.63
x1 = 0.07	50.26 ± 0.68	49.28 ± 0.67	48.45 ± 0.66	47 ± 0.64	45.89 ± 0.63
x1 = 0.1	49.96 ± 0.68	48.91 ± 0.67	48 ± 0.65	46.49 ± 0.64	45.58 ± 0.63
x1 = 0.2	48.91 ± 0.68	48.08 ± 0.67	47.09 ± 0.65	45.89 ± 0.64	45.13 ± 0.63
x1 = 0.3	47.93 ± 0.68	47.17 ± 0.67	46.42 ± 0.66	45.43 ± 0.64	44.6 ± 0.63
x1 = 0.4	47.54 ± 0.68	46.87 ± 0.67	46.19 ± 0.66	45.28 ± 0.65	44.53 ± 0.64
x1 = 0.5	47.17 ± 0.69	46.72 ± 0.69	46.02 ± 0.68	45.21 ± 0.67	44.45 ± 0.66
x1 = 0.6	47.1 ± 0.71	46.64 ± 0.7	45.81 ± 0.69	44.91 ± 0.68	44.15 ± 0.67
x1 = 0.7	47.1 ± 0.72	46.42 ± 0.71	45.66 ± 0.7	45 ± 0.69	44.23 ± 0.68
x1 = 0.8	46.94 ± 0.74	46.42 ± 0.73	45.66 ± 0.72	44.68 ± 0.71	43.85 ± 0.7
x1 = 0.9	46.64 ± 0.76	46.11 ± 0.75	45.51 ± 0.74	44.53 ± 0.72	43.77 ± 0.71
x1 = 1	46.31 ± 0.77	45.81 ± 0.76	45.22 ± 0.75	44.12 ± 0.74	43.19 ± 0.72
